Source: US20140094370A1, “FORMULATION COMPONENT” (SYNGENTA LIMITED, priority 2011, published 2014)

Key:
[1] = test system: Chenopodium album (CHEAL), Abutilon theophrasti (ABUTH), Setaria viridis (SETVI) and Xanthium strumarium (XANST); experiment: Glasshouse herbicide efficacy test of fomesafen compositions with adjuvant against four weed species; type: in vivo; details: mean over fomesafen 60 and 120 g/ha, three replicates, four weed species, 2, 7 and 14 days after application; adjuvant 0.5% v/v; 200 liters per hectare
Protocol: (§1) The aromatic ester bis-2-ethylhexyl phthalate was tested as an adjuvant in compositions of fomesafen, in a glasshouse against four weed species. An agrochemical composition was prepared containing 0.5% v/v of the adjuvant in a track sprayer and was applied at a volume of 200 liters per hectare. Fomesafen was applied at a rate of either 60 or 120 grams per hectare. The adjuvant oils were emulsified using a small amount of the surfactant Pluronic® PE 10500, which was present in the composition at a concentration of 0.02% v/v. The weed species and their growth stage at spraying were Chenopodium album (CHEAL; growth stage 14), Abutilon theophrasti (ABUTH; growth stage 12), Setaria viridis (SETVI; growth stage 13), and Xanthium strumarium (XANST; growth stage 12).
Each spray test was replicated three times. The efficacy of the herbicide was assessed visually and expressed as a percentage of the leaf area killed. Samples were assessed at time periods of 2, 7 and 14 days following application. The results shown below in Table 11 are mean averages over the two rates of fomesafen, three replicates, four weed species and the three assessment timings, and are compared to the efficacy of fomesafen without adjuvant and fomesafen with the commercially available adjuvant Turbocharge® (applied at 0.5% v/v).

[2] = test system: Polygonum convolvulus (POLCO), Brachiaria platyphylla (BRAPL), Digitaria sanguinalis (DIGSA) and Amaranthus tuberculatus (AMATU); experiment: Glasshouse herbicide efficacy test of mesotrione compositions with adjuvant against four weed species; type: in vivo
Protocol: as §1, with “mesotrione,” for “fomesafen,”, “Mesotrione” for “Fomesafen”, “at” for “at a rate of”, “Polygonum convolvulus (POLCO;” for “Chenopodium album (CHEAL; growth stage 14), Abutilon theophrasti (ABUTH; growth stage 12), Setaria viridis (SETVI;”, “Brachiaria platyphylla (BRAPL;” for “and Xanthium strumarium (XANST;”, “13)” for “12).”
Digitaria sanguinalis (DIGSA; growth stage 13) and Amaranthus tuberculatus (AMATU; growth stage 13).
Each spray test was replicated three times. The efficacy of the herbicide was assessed visually and expressed as a percentage of the leaf area killed. Samples were assessed at time periods of 7, 14 and 21 days following application. The results shown below in Table 10 are mean averages over the two rates of mesotrione, three replicates, four weed species and the three assessment timings, and are compared to the efficacy of mesotrione in the absence of adjuvant and mesotrione plus the commercial tank mix adjuvant Turbocharge® (applied at 0.5% v/v).

CS(=O)(=O)NC(=O)c1cc(Oc2ccc(C(F)(F)F)cc2Cl)ccc1[N+](=O)[O-] [Fomesafen]
Mean percentage kill (percentage of the leaf area killed), mean across species [1]: 14.3 C %

CS(=O)(=O)c1ccc(C(=O)C2C(=O)CCCC2=O)c([N+](=O)[O-])c1 [Mesotrione]
Mean percentage kill (percentage of the leaf area killed), mean across species ([2]; mean over mesotrione 60 and 120 g/ha, three replicates, four weed species, 7, 14 and 21 days after application, adjuvant 0.5% v/v, 200 liters per hectare): 49.6 B %

CCCCC(CC)COC(=O)c1ccccc1C(=O)OCC(CC)CCCC (stereo not drawn) [bis-2-ethylhexylphthalate, Bis(2-ethylhexyl) phthalate]
Adjuvant effect on efficacy of the herbicide (in words) ([2]; adjuvant 0.5% v/v with mesotrione, versus mesotrione without adjuvant): increases the efficacy of the herbicide mesotrione
